Source: patent US10131606B2, “Tetrarylmethane ethers” (Rohm and Haas Company, priority 2014, dated 2018)

`CCCCCCOc1ccc(C(c2ccccc2)(c2ccccc2)c2ccc(OCCCCCC)cc2)cc1` [BHexTPM] showed a melting point of 120 to 122 °C.
Work on `CCCCCCCOc1ccc(C(c2ccccc2)(c2ccccc2)c2ccc(OCCCCCCC)cc2)cc1` [BHeptTPM, Bis(4-(heptyloxy)phenyl)diphenylmethane] yielded a melting point of 103 to 105 °C.
`CCCCCOc1ccc(C(c2ccccc2)(c2ccccc2)c2ccc(OCCCCC)cc2)cc1` [BPentTPM, Bis(4-(pentyloxy)phenyl)diphenylmethane] showed a melting point of 110 to 113 °C.
In the case of `CCCCCCCCOc1ccc(C(c2ccccc2)(c2ccccc2)c2ccc(OCCCCCCCC)cc2)cc1` [BOctTPM, Bis(4-(octyloxy)phenyl)diphenylmethane], the melting point is reported as 84.5 to 86.5 °C.
